Measured values reported in patent US20240246918A1, “COMPOUNDS AND COMPOSITIONS AS EIF4E INHIBITORS AND THE USES THEREOF” (Ribometrix, Inc., priority 2022, published 2024).

Legend:
human eIF4E protein = target: T1, human eIF4E protein (Homo sapiens, UniProt P06730); test: Biochemical competitive binding assay (TR-FRET competition, EDA-m7GDP-ATTO-647N probe); conditions: read-out: hEIF4E TR-FRET IC50
T1 construct: purchased Novus NBP-45314
Procedure: The potencies of compounds binding to human eIF4E protein were measured using a 384-well time-resolved fluorescence resonance energy transfer (TR-FRET) competition assay. The assay was performed in assay buffer containing 50 mM HTEPES pH 7.5, 100 mM KCl, 0.02% Tween-20, and 0.1 mg/mL bovine serum albumin (BSA). The reaction volume was 10 μL and each reaction contained 4 nM recombinant 6×HIS-tagged human EIF4E protein (Novus, NBP-45314), 5 nM EDA-m7GDP-ATTO-647N (Jena Bioscience, NU-827-647N), 2.5 nM Europium conjugated Anti-6×HIS antibody (PerkinElmer, AD0402) and varying concentrations of compound. The final DMSO concentration was […].
Compounds were prepared using 11-point, 4-fold serial dilutions in DMSO and 100 nL of diluted compounds were transferred to 384-well assay-ready plates. Recombinant human EIF4E protein at 2× final concentration (8 nM) was pre-incubated with Eu-anti-6×HIS antibody at 2× final concentration (5 nM) for 5 minutes, then 5 μL of the protein solution was added to assay-ready plates. The protein/compound mix was incubated for 15 minutes, after which 5 μL of a solution containing EDA-m7GDP-ATTO-647N probe at 2× final concentration (10 nM) was added. After a subsequent 15-minute incubation, time-resolved fluorescence of assay plates was measured using a Clariostar Plus microplate reader (BMG Labtech) and TR-FRET values were calculated by taking a ratio of the 665 to 620 wavelength signals. After normalization to the average of DMSO control and maximum inhibition control wells, concentration-response data were plotted and standard 4-parameter curve fitting (PEI Signals) was utilized to determine IC50 values.

[1] = system: COLO 205 colorectal tumor cells; test: Tumor cell viability inhibition assay (CellTiter-Glo 2.0, 72 hours); type: cell-based; conditions: COLO 205 cell viability
Procedure: The effect of compound treatment on COLO 205 tumor cell viability was assessed using cellular ATP quantification methods (Promega CellTiter-Glo® 2.0, G9241), as follows. Test compounds were prepared using 11-point, 4-fold serial dilutions in DMSO and 100 nL of diluted compounds were transferred to 384-well assay-ready plates. COLO 205 (ATCC, CCL-222) colorectal tumor cells were seeded to assay-ready plates in RPMI-1640 medium supplemented with 10% FBS at 1500 cells in a volume of 33.5 microliters per well. After 72 hours of compound treatment, cellular ATP was assessed by CellTiter-Glo® 2.0 Cell Viability Assay method, according to the manufacturer's instructions. Luminescence was measured using a Clariostar Plus microplate reader (BMG Labtech) or equivalent. After normalization to the average of DMSO control and maximum inhibition control wells, concentration-response data were plotted and standard 4-parameter curve fitting (PEI Signals) was utilized to determine IC50

T1 sequence (P06730 whole entry): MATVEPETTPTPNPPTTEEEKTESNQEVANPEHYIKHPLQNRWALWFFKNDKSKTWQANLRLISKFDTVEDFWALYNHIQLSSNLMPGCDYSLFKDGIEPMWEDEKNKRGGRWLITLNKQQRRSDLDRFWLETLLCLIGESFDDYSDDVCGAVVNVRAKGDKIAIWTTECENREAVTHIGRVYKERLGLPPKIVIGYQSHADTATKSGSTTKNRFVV

Row | SMILES | IC50 (human eIF4E protein) [nM] | IC50 ([1]; Homo sapiens, COLO 205, 72 h) [µM] | IC50 [1] [µM]
1 | Cc1cc(-c2cc(Cl)ccc2OCCn2c(C)nc3c(c2=O)C[C@@H](N2CC[C@@H](OC(F)(F)F)C2)CC3)c2scc(C(=O)O)c2n1 (single isomer, unassigned) [Compound 389] | < 100 | < 5 | –
2 | Cc1cc(-c2cc(Cl)ccc2OCCn2c(C)nc3c(c2=O)C[C@H](N2CCC4(CC2)CC4(F)F)CC3)c2scc(C(=O)O)c2n1 (single isomer, unassigned) [Compound 390] | < 100 | < 5 | –
3 | Cc1cc(-c2cc(Cl)ccc2OCCn2c(C)nc3c(c2=O)C[C@@H](N2CCC4(CC2)CC4(F)F)CC3)c2scc(C(=O)O)c2n1 (single isomer, unassigned) [Compound 391] | < 100 | < 5 | –
4 | Cc1cc(-c2cc(Cl)ccc2OCCn2c(C)nc3c(c2=O)C[C@@H](N2CC[C@H](OC(F)(F)F)C(C)(C)C2)CC3)c2scc(C(=O)O)c2n1 (single isomer, unassigned) [Compound 392] | < 100 | < 5 | –
5 | Cc1cc(-c2cc(Cl)ccc2OCCn2c(C)nc3c(c2=O)C[C@@H](N2CC[C@@H](OC(F)(F)F)C(C)(C)C2)CC3)c2scc(C(=O)O)c2n1 (single isomer, unassigned) [Compound 393] | < 100 | 5 to 20 | –
6 | Cc1cc(-c2cc(Cl)ccc2OCCn2c(C)nc3c(c2=O)C[C@H](N2CC[C@H](OC(F)(F)F)C(C)(C)C2)CC3)c2scc(C(=O)O)c2n1 (single isomer, unassigned) [Compound 394] | < 100 | < 5 | –
7 | Cc1cc(-c2cc(Cl)ccc2OCCn2c(C)nc3c(c2=O)C[C@H](N2CC[C@@H](OC(F)(F)F)C(C)(C)C2)CC3)c2scc(C(=O)O)c2n1 (single isomer, unassigned) [Compound 395] | < 100 | 5 to 20 | –
8 | Cc1cc(-c2cc(Cl)ccc2OCCn2c(C)nc3c(c2=O)C[C@@H](N2[C@@H]4CC[C@H]2C[C@@H](OC(F)(F)F)C4)CC3)c2scc(C(=O)O)c2n1 (single isomer, unassigned) [Compound 396] | < 100 | < 5 | –
9 | Cc1cc(-c2cc(Cl)ccc2OCCn2c(C)nc3c(c2=O)C[C@@H](N2[C@@H]4CC[C@H]2C[C@H](OC(F)(F)F)C4)CC3)c2scc(C(=O)O)c2n1 (single isomer, unassigned) [Compound 397] | 100 to 500 | 5 to 20 | –
10 | Cc1cc(-c2cc(Cl)ccc2OCCn2c(C)nc3c(c2=O)C[C@H](N2[C@@H]4CC[C@H]2C[C@@H](OC(F)(F)F)C4)CC3)c2scc(C(=O)O)c2n1 (single isomer, unassigned) [Compound 398] | 100 to 500 | > 20 | –
11 | Cc1cc(-c2cc(Cl)ccc2OCCn2c(C)nc3c(c2=O)C[C@H](N2[C@@H]4CC[C@H]2C[C@H](OC(F)(F)F)C4)CC3)c2scc(C(=O)O)c2n1 (single isomer, unassigned) [Compound 399] | < 100 | < 5 | –
12 | Cc1cc(-c2cc(Cl)ccc2OCCn2c(C)nc3c(c2=O)C[C@H](N2CCCC(F)(F)CC2)CC3)c2scc(C(=O)O)c2n1 (single isomer, unassigned) [Compound 401] | < 100 | < 5 | –
13 | Cc1cc(-c2cc(Cl)ccc2OCCn2c(C)nc3c(c2=O)C[C@@H](N2CCCC(F)(F)CC2)CC3)c2scc(C(=O)O)c2n1 (single isomer, unassigned) [Compound 402] | < 100 | < 5 | –
14 | Cc1cc(-c2cc(Cl)ccc2OCCn2c(C)nc3c(c2=O)C[C@H](N2CC[C@@H](OC(F)(F)F)C(F)(F)C2)CC3)c2scc(C(=O)O)c2n1 (single isomer, unassigned) [Compound 403] | < 100 | 5 to 20 | –
15 | Cc1cc(-c2cc(Cl)ccc2OCCn2c(C)nc3c(c2=O)C[C@H](N2CC[C@H](OC(F)(F)F)C(F)(F)C2)CC3)c2scc(C(=O)O)c2n1 (single isomer, unassigned) [Compound 404] | < 100 | 5 to 20 | –
16 | Cc1cc(-c2cc(Cl)ccc2OCCn2c(C)nc3c(c2=O)C[C@@H](N2CC[C@@H](OC(F)(F)F)C(F)(F)C2)CC3)c2scc(C(=O)O)c2n1 (single isomer, unassigned) [Compound 405] | < 100 | 5 to 20 | –
17 | Cc1cc(-c2cc(Cl)ccc2OCCn2c(C)nc3c(c2=O)C[C@@H](N2CC[C@H](OC(F)(F)F)C(F)(F)C2)CC3)c2scc(C(=O)O)c2n1 (single isomer, unassigned) [Compound 406] | < 100 | 5 to 20 | –

Row | SMILES | IC50 (human eIF4E protein) [nM] | IC50 ([1]; Homo sapiens, COLO 205, 72 h) [µM] | IC50 [1] [µM]
18 | Cc1cc(-c2cc(Cl)ccc2OCCn2c(C)nc3c(c2=O)C[C@@H](N2CCC(COC(F)(F)F)CC2)CC3)c2scc(C(=O)O)c2n1 (single isomer, unassigned) [Compound 407] | < 100 | < 5 | –
19 | Cc1cc(-c2cc(Cl)ccc2OCCn2c(C)nc3c(c2=O)C[C@H](N2CCCC[C@H]2C)CC3)c2scc(C(=O)O)c2n1 (single isomer, unassigned) [Compound 408] | < 100 | 5 to 20 | –
20 | Cc1cc(-c2cc(Cl)ccc2OCCn2c(C)nc3c(c2=O)C[C@@H](N2CCCC[C@@H]2C)CC3)c2scc(C(=O)O)c2n1 (single isomer, unassigned) [Compound 409] | < 100 | > 20 | –
21 | COC1CCN(C2CCc3nc(C)n(CC#Cc4ccc(Cl)cc4-c4ccnc5c(C(=O)O)csc45)c(=O)c3C2)CC1 (single isomer, unassigned) [Compound 410] | < 100 | – | 5 to 20
22 | Cc1cc(-c2cc(Cl)ccc2OCCn2c(C)nc3c(c2=O)C[C@H](NC24CC5CC(CC(C5)C2)C4)CC3)c2scc(C(=O)O)c2n1 (single isomer, unassigned) [Compound 412] | < 100 | < 5 | –
23 | Cc1cc(-c2cc(Cl)ccc2OCCn2c(C)nc3c(c2=O)C[C@@H](NC24CC5CC(CC(C5)C2)C4)CC3)c2scc(C(=O)O)c2n1 (single isomer, unassigned) [Compound 413] | < 100 | 5 to 20 | –
24 | COC1CCN(C2CCc3nc(C)n(CC#Cc4ccc(Cl)cc4-c4ccnc5c(C(=O)NS(C)(=O)=O)csc45)c(=O)c3C2)CC1 (single isomer, unassigned) [Compound 414] | < 100 | < 5 | –
25 | CO[C@H]1CCN([C@@H]2CCc3nc(C)n(CCOc4ccc(Cl)cc4-c4cc(C)nc5c(C(=O)O)csc45)c(=O)c3C2)CC1(C)C (single isomer, unassigned) [Compound 415] | < 100 | < 5 | –
26 | Cc1cc(-c2cc(Cl)ccc2OCCn2c(C)nc3c(c2=O)CC(N2CCC(OC(F)(F)F)CC2)CC3)c2scc(C(=O)NS(=O)(=O)C(F)F)c2n1 (single isomer, unassigned) [Compound 416] | < 100 | 5 to 20 | –
27 | Cc1cc(-c2cc(Cl)ccc2OCCn2c(C)nc3c(c2=O)CC(N2CCC(OC(F)(F)F)CC2)CC3)c2scc(C(=O)NS(=O)(=O)C3CC3)c2n1 (single isomer, unassigned) [Compound 417] | < 100 | < 5 | –
28 | Cc1cc(-c2cc(Cl)ccc2OCCn2c(C)nc3c(c2=O)C[C@H](N2CCC(c4ccc(F)cc4F)CC2)CC3)c2scc(C(=O)O)c2n1 (single isomer, unassigned) [Compound 418] | < 100 | < 5 | –
29 | Cc1cc(-c2cc(Cl)ccc2OCCn2c(C)nc3c(c2=O)C[C@@H](N2CCC(c4ccc(F)cc4F)CC2)CC3)c2scc(C(=O)O)c2n1 (single isomer, unassigned) [Compound 419] | < 100 | < 5 | –
30 | Cc1cc(-c2cc(Cl)ccc2OCCn2c(C)nc3c(c2=O)C[C@H](N2CCC4(CCCO4)CC2)CC3)c2scc(C(=O)O)c2n1 (single isomer, unassigned) [Compound 420] | < 100 | 5 to 20 | –
31 | Cc1cc(-c2cc(Cl)ccc2OCCn2c(C)nc3c(c2=O)C[C@@H](N2CCC4(CCCO4)CC2)CC3)c2scc(C(=O)O)c2n1 (single isomer, unassigned) [Compound 421] | < 100 | < 5 | –
32 | Cc1cc(-c2cc(Cl)ccc2OCCn2c(C)nc3c(c2=O)C[C@H](N2CCC(n4ccnn4)CC2)CC3)c2scc(C(=O)O)c2n1 (single isomer, unassigned) [Compound 422] | < 100 | 5 to 20 | –
33 | Cc1cc(-c2cc(Cl)ccc2OCCn2c(C)nc3c(c2=O)C[C@@H](N2CCC(n4ccnn4)CC2)CC3)c2scc(C(=O)O)c2n1 (single isomer, unassigned) [Compound 423] | < 100 | 5 to 20 | –
